Test results as given in US11390631B1, “Benzodiazepine derivatives as RSV inhibitors” (priority 2015, dated 2022).

The compounds below were run on Human RSV-A (“Long” strain) (assay: RSV-A assay: inhibition of cytopathic effect in Hep-2 cells, ATPlite readout). Settings: human respiratory syncytial virus, HEp-2, 120 h, read-out: Human RSV-A (“Long” strain) EC50.
Assay type: cell-based, Human respiratory syncytial virus (HRSV)
Description: Hep-2 cells, (originally derived from tumors grown in irradiated-cortisonised weanling rats that had been injected with epidermoid carcinoma tissue from a person's larynx, but later found to be indistinguishable from HeLa cells by PCR DNA analysis), were used for the culturing of genotype A, “Long” strain RSV. Flasks were inoculated with RSV and viral stocks were collected once cytopathic effect (CPE) was greater than 90%. Viral stocks in 25% sucrose media were snap frozen using liquid nitrogen to increase viral stability. Viral stock titers were quantified by tissue culture infectious dose 50% (TCID50) using 8,000 cells per well and 3-fold viral dilutions across a 96-well plate, cultured for 4 days. Viral stock titers were also quantified by a plaque forming unit assay, as described elsewhere.
Following extensive parameter testing, the final assay is run as follows: Hep-2 cells are seeded into the inner 60 wells of a 96-well plate at 8,000 cells per well in a volume of 50 μL using Growth Media (DMEM without phenol red, 1% L-Glut, 1% Penn/Strep, 1% nonessential amino acids, 10% heat-inactivated FBS). 2-fold serial dilutions of control and test compounds are added to the wells in duplicate in a total volume of 25 μL. Viral stock is then added to the wells at a multiplicity of infection (MOI) of 0.1 in a volume of 25 μL, bringing the total volume of each well to 100 μL. The MOI is calculated using the PFU/mL, or TCID50 if unavailable. Each 96-well plate has a control column of 6 wells with cells and virus but no compound (negative control, max CPE), a column with cells but no compound or virus (positive control, minimum CPE), and a column with no cells or virus or compound (background plate/reagent control). The control wells with cells but no virus are given an additional 25 uL of growth media containing an equal quantity of sucrose as those wells receiving the viral stock in order to keep consistent in media and volume conditions. The outer wells of the plate are filled with 125 μL of moat media (DMEM, 1% Penn/Strep) to act as a thermal and evaporative moat around the test wells. Following a 5-day incubation period, the plates are read using ATPlite (50 uL added per well), which quantifies the amount of ATP (a measure of cell health) present in each well. Assay plates are read using the Envision luminometer. In parallel, cytotoxicity is examined on an additional 96-well plate treated in an identical manner, but substituting the 25 μL of viral stock for 25 μL of growth media. […] EC50 ranges are as follows: A<0.4 μM; B 0.4-0.8 μM; C>0.8 μM and CC50 ranges are as follows: A>50 μM; B 10-50 μM; C<10 μM.
CC1(c2nnc(NC3N=C(c4ccccc4)c4ccccc4NC3=O)o2)CCNC1 (centres unmarked) [Example 223] gave an EC50 of over 800 nM.
With O=C1Nc2ccccc2C(c2ccccc2)=NC1Nc1nnc(-c2ccc(-n3cncn3)nc2)o1 (centres unmarked) [Example 225] the EC50 was over 800 nM.
For O=C1Nc2ccccc2C(c2ccccc2)=NC1Nc1nnc(-c2ccccc2-c2ccncc2)o1 (centres unmarked) [Example 226], the EC50 was over 800 nM.
Compound O=C1Nc2ccccc2C(c2ccccc2)=NC1Nc1nnc([C@@H]2CCCN2C2CCNCC2)o1 (some centres unmarked) [Example 227] has an EC50 of over 800 nM.
CN1CCC(N2CCC[C@H]2c2nnc(NC3N=C(c4ccccc4)c4ccccc4NC3=O)o2)CC1 (some centres unmarked) [Example 228] gave an EC50 of over 800 nM.
Work on COCCOc1ccccc1-c1nnc(NC2N=C(c3ccccc3)c3ccccc3NC2=O)o1 (centres unmarked) [Example 229] yielded an EC50 of over 800 nM.
In the case of CC1(Nc2nnc(-c3ccc(F)cc3)o2)N=C(c2ccccc2)c2ccccc2NC1=O (centres unmarked) [Example 230], the EC50 is reported as over 800 nM.
Work on O=C1Nc2ccccc2C(c2ccccc2)=NC1Nc1nnc(-c2ccc(-n3ccnc3)cc2)o1 (centres unmarked) [Example 231] yielded an EC50 of under 400 nM.
For O=C1Nc2ccccc2C(c2ccccc2)=NC1Nc1nnc(-c2ccc(-n3ccnc3)nc2)o1 (centres unmarked) [Example 232], the EC50 was over 800 nM.
Compound O=C1Nc2ccccc2C(c2ccccc2)=NC1Nc1nnc(-c2ccc(-n3cnnc3)cc2)o1 (centres unmarked) [Example 233] has an EC50 of over 800 nM.
CN(C)CCOc1ccccc1-c1nnc(NC2N=C(c3ccccc3)c3ccccc3NC2=O)o1 (centres unmarked) [Example 234] was tested, and the EC50 was over 800 nM.
Compound O=C1Nc2ccccc2C(c2ccccc2)=NC1Nc1nnc(-c2ccccc2NCc2ccccn2)o1 (centres unmarked) [Example 235] has an EC50 of over 800 nM.
In the case of COCCOc1ccc(-c2nnc(NC3N=C(c4ccccc4)c4ccccc4NC3=O)o2)cc1 (centres unmarked) [Example 236], the EC50 is reported as over 800 nM.
In the case of CN1CCN(c2ncccc2-c2nnc(NC3N=C(c4ccccc4)c4ccccc4NC3=O)o2)CC1 (centres unmarked) [Example 237], the EC50 is reported as over 800 nM.
For CN[C@H](c1ccccc1)c1nnc(NC2N=C(c3ccccc3)c3ccccc3NC2=O)o1 (some centres unmarked) [Example 238], the EC50 was over 800 nM.
Compound O=C1Nc2ccccc2C(c2ccccc2)=NC1Nc1nnc(-c2ccccc2OC2CCOCC2)o1 (centres unmarked) [Example 239] has an EC50 of over 800 nM.
O=C1Nc2ccccc2C(c2ccccc2)=NC1Nc1nnc(-c2ccccc2N2CCS(=O)(=O)CC2)o1 (centres unmarked) [Example 240] gave an EC50 of over 800 nM.
O=C1Nc2ccccc2C(c2ccccc2)=NC1Nc1nnc(-c2cccnc2N2CCCCC2)o1 (centres unmarked) [Example 241] was tested, and the EC50 was over 800 nM.
C[C@@H]1CN(c2ccc(-c3nnc(N[C@H]4N=C(c5ccccc5)c5ccccc5NC4=O)o3)c(Cl)c2)C[C@H](C)O1 [Example 243] was tested, and the EC50 was over 800 nM.
Compound O=C1Nc2ccccc2C(c2ccccc2)=N[C@@H]1Nc1nnc(-c2ccc(N3C4CCC3COC4)cc2Cl)o1 [Example 244] has an EC50 of over 800 nM.
O=C1Nc2ccccc2C(c2ccccc2)=NC1Nc1nnc(-c2cccnc2N2CCCC(F)(F)C2)o1 (centres unmarked) [Example 246] was tested, and the EC50 was over 800 nM.
In the case of CO[C@H]1CCN(c2ncccc2-c2nnc(NC3N=C(c4ccccc4)c4ccccc4NC3=O)o2)C1 (some centres unmarked) [Example 247], the EC50 is reported as over 800 nM.
O=C1Nc2ccccc2C(c2ccccc2)=NC1Nc1nnc(-c2cccnc2N2C[C@@H]3C[C@H]2CO3)o1 (some centres unmarked) [Example 248] showed an EC50 of over 800 nM.
Work on COC1CCN(c2ncccc2-c2nnc(NC3N=C(c4ccccc4)c4ccccc4NC3=O)o2)CC1 (centres unmarked) [Example 254] yielded an EC50 of over 800 nM.
Compound O=C1Nc2ccccc2C(c2ccccc2)=NC1Nc1nnc(-c2cccnc2N2CCC(O)CC2)o1 (centres unmarked) [Example 255] has an EC50 of over 800 nM.
O=C1Nc2ccccc2C(c2ccccc2)=NC1Nc1nnc(-c2cccnc2N2CCC(F)CC2)o1 (centres unmarked) [Example 256] was tested, and the EC50 was over 800 nM.
COC1CN(c2ncccc2-c2nnc(NC3N=C(c4ccccc4)c4ccccc4NC3=O)o2)C1 (centres unmarked) [Example 258] was tested, and the EC50 was over 800 nM.
For O=C1Nc2ccccc2C(c2ccccc2)=NC1Nc1nnc(-c2cccnc2N2CC(F)(F)C2)o1 (centres unmarked) [Example 259], the EC50 was over 800 nM.
Work on N#CC1CCN(c2ncccc2-c2nnc(NC3N=C(c4ccccc4)c4ccccc4NC3=O)o2)CC1 (centres unmarked) [Example 260] yielded an EC50 of over 800 nM.
C[C@H]1COCCN1c1ncccc1-c1nnc(NC2N=C(c3ccccc3)c3ccccc3NC2=O)o1 (some centres unmarked) [Example 261] gave an EC50 of over 800 nM.
For C[C@@H]1CN(c2ncccc2-c2nnc(NC3N=C(c4ccccc4)c4ccccc4NC3=O)o2)CCO1 (some centres unmarked) [Example 262], the EC50 was over 800 nM.
O=C1Nc2ccccc2C(c2ccccc2)=NC1Nc1nnc(-c2cccnc2N2C[C@H]3C[C@@H]2CO3)o1 (some centres unmarked) [Example 264] gave an EC50 of over 800 nM.
O=C1Nc2ccccc2C(c2ccccc2)=NC1Nc1nnc(-c2cccnc2N2C3CCC2COC3)o1 (centres unmarked) [Example 265] showed an EC50 of over 800 nM.
O=C1Nc2ccccc2C(c2ccccc2)=NC1Nc1nnc(-c2cccnc2N2CC3CCC(C2)O3)o1 (centres unmarked) [Example 266] was tested, and the EC50 was 400 to 800 nM.
O=C1Nc2ccccc2C(c2ccccc2)=NC1Nc1nnc(-c2cccnc2N2C[C@H]3COC[C@H]3C2)o1 (some centres unmarked) [Example 267] showed an EC50 of over 800 nM.
For O=C1Nc2ccccc2C(c2ccccc2)=N[C@@H]1Nc1nnc(-c2cccnc2N2CCn3ncnc3C2)o1 [Example 270], the EC50 was over 800 nM.
COC1CN(c2cc(C(F)(F)F)cnc2-c2nnc(N[C@H]3N=C(c4ccccc4)c4ccccc4NC3=O)o2)C1 [Example 271] was tested, and the EC50 was over 800 nM.
Work on O=C1Nc2ccccc2C(c2ccccc2)=NC1Nc1nnc(-c2ccc(-n3cncn3)cc2)o1 (centres unmarked) [Example 273] yielded an EC50 of 400 to 800 nM.
Compound N#CC1CN(c2ncccc2-c2nnc(NC3N=C(c4ccccc4)c4ccccc4NC3=O)o2)C1 (centres unmarked) [Example 274] has an EC50 of over 800 nM.
O=C1Nc2ccccc2C(c2ccccc2)=N[C@@H]1Nc1nnc(-c2ccc(C(F)(F)F)nc2N2C3CCC2COC3)o1 [Example 275] gave an EC50 of over 800 nM.
In the case of Cc1ccc(-c2nnc(N[C@H]3N=C(c4ccccc4)c4ccccc4NC3=O)o2)c(N2CC3CCC(C2)O3)n1 [Example 279], the EC50 is reported as under 400 nM.
Cc1ccc(-c2nnc(N[C@H]3N=C(c4ccccc4)c4ccccc4NC3=O)o2)c(N2C3CCC2COC3)n1 [Example 280] showed an EC50 of under 400 nM.
For N#Cc1ccc(-c2nnc(N[C@H]3N=C(c4ccccc4)c4ccccc4NC3=O)o2)c(N2CC3CCC(C2)O3)c1 [Example 281], the EC50 was under 400 nM.
Compound O=C1Nc2ccccc2C(c2ccccc2)=N[C@@H]1Nc1nnc(-c2ncc(C(F)(F)F)cc2-c2ccncc2)o1 [Example 282] has an EC50 of over 800 nM.
For O=C1Nc2ccccc2C(c2ccccc2)=NC1Nc1nnc(-c2ccccc2-n2cccn2)o1 (centres unmarked) [Example 283], the EC50 was over 800 nM.
C[C@@H]1CN(c2cc(F)ccc2-c2nnc(N[C@H]3N=C(c4ccccc4)c4ccccc4NC3=O)o2)C[C@H](C)O1 [Example 284] was tested, and the EC50 was over 800 nM.
C[C@@H]1COCCN1c1cc(C#N)ccc1-c1nnc(N[C@H]2N=C(c3ccccc3)c3ccccc3NC2=O)o1 [Example 285] gave an EC50 of under 400 nM.
Work on Cc1ccc(-c2nnc(N[C@H]3N=C(c4ccccc4)c4ccccc4NC3=O)o2)c(N2CCOC[C@H]2C)n1 [Example 286] yielded an EC50 of under 400 nM.
O=C1Nc2ccccc2C(c2ccccc2)=NC1Nc1nnc(C23CCN(CC2)CC3)o1 (centres unmarked) [Example 287] gave an EC50 of over 800 nM.
O=C1Nc2ccccc2C(c2ccccc2)=N[C@@H]1Nc1nnc(-c2ccc(F)cc2N2CC3CCC(C2)O3)o1 [Example 288] showed an EC50 of 400 to 800 nM.
N#Cc1ccc(-c2nnc(N[C@H]3N=C(c4ccccc4)c4ccccc4NC3=O)o2)c(N2C3CCC2COC3)c1 [Example 289] showed an EC50 of under 400 nM.
O=C1Nc2ccccc2C(c2ccccc2)=N[C@@H]1Nc1nnc(-c2cnc(C(F)(F)F)nc2N2CC3CCC(C2)O3)o1 [Example 290] was tested, and the EC50 was over 800 nM.
For N#Cc1c[nH]c2cc(-c3nnc(N[C@H]4N=C(c5ccccc5)c5ccccc5NC4=O)o3)ccc12 [Example 291], the EC50 was over 800 nM.
